The structures appear in SMILES notation. Like-named read-outs stand apart in the source and are kept apart here. Where only a bound is given, the exact number is not on record here.

In series [1] the test system is SW-480 colon adenocarcinoma cells. Put plainly: Apoptosis, DNA fragmentation (Cell Death Detection ELISA plus). The series is classed as cell-based, human. Particulars: for EC50: SW-480, by data analysis software or estimated from effective concentration range. The protocol: (§1) Apoptosis was also measured based on the amount of fragmented DNA contained in cell lysates. Briefly, SW-480 colon adenocarcinoma cells were plated in 96-well microtitre plates ("MTP") at a density of 10K cells/well in 180 μl and were incubated for 24 hrs. Cells were then treated with 20 μl aliquots of appropriately diluted compound, and allowed to incubate for an additional 48 hrs.
After the incubation, samples were prepared according to the following steps. The MTP was centrifuged (15 min., 1000 rpm) and the supernatant was carefully removed by fast inversion of the MTP. The cell pellets in each well were resuspended in 200 μl lysis buffer and incubated for 45 min. at room temperature to lyse the cells. The lysates were then centrifuged (15 min., 1000 rpm) and 20 μl aliquots of the supernatant (=cytoplasmicfraction) were transferred into the streptavidin-coated MTP for analysis. Care was taken not to shake the lysed pellets in the MTP (=cell nucleii containing high molecular weight, unfragmented DNA). Samples were analyzed immediately, because storage at 4° C. or -20° C. reduces the ELISA-signals.
Samples were then processed according to a DNA fragmentation assay protocol, and dose-response curves were generated based on optical density readings. Quantification of DNA was done by a commercially available photometric enzyme-immunoassay manufactured by Mannheim-Boehringer under the name "Cell Death Detection ELISA ^plus ". The assay is based on a quantitative sandwich-enzyme-immunoassay-principle using mouse monoclonal antibodies directed against DNA and histones, respectively. This allows the specific determination of mono and oligonucleosomes in the cytoplasmatic fraction of cell lysates. In brief, the assay procedure is as follows. The sample (cell-lysate, serum, culture-supematant etc.) is placed into a streptavidin-coated MTP. Subsequently, a mixture of anti-histone-biotin and anti-DNA-POD is followed by incubation for 2 hours. During the incubation period, the anti-histone antibody binds to the histone-component of the nucleosomes and simultaneously fixes the immunocomplex to the streptavidin-coated MTP via its biotinylation. Additionally, the anti-DNA-POD antibody reacts with the DNA component of the nucleosomes. After removal of unbound antibodies by washing, the amount of nucleosomes is quantified by the POD retained in the immunocomplex. POD is determined photometrically with ABTS® (2,2'-Azino-di[3-ethylbenzthiazolin-sulfonate]) as substrate.
Fold stimulation (FS=ODmax/ODveh), an indicator of apoptotic response, was determined for each compound tested. EC50 values were determined either specifically by data analysis software, or by estimates based on the effective concentration range of each compound (ECR=min. effective dose-min. dose to peak effect). These FS and EC50 values for the tested compounds are listed above in Table 3.
(§2) In addition, using the DNA fragmentation test above, dose responses for the compounds of Example 8 and 9 were obtained.
Based on the data obtained from the DNA fragmentation tests in Tables 4 and 5, fold stimulations values for those compounds are also calculated at 100 μM by dividing the optical densities obtained at 100 μM by the optical densities of the control. Based on the data in Tables 4 and 5, fold stimulation values of 3.9 and 2.1 for the compounds of Examples 8 and 9 are obtained, accordingly.

Series [2] concerns human colon carcinoma cell line, SW-480. Briefly: Growth inhibition, Sulforhodamine B (SRB) protein binding assay. The series is classed as cell-based. Particulars: for inhibition at 100 µM: SW480, 144 h, SW-480, six days. The method, then: The compounds of Examples #1, #8, and #9 were assayed for their growth inhibitory activity on the human colon carcinoma cell line, SW-480 obtained from ATCC (Rockville, Md.), to ascertain the degree of growth inhibition. Growth inhibition of this cell line is indicative of a benefit on precancerous lesions and neoplasms. The cell line and growth assay employed for such experiments are well characterized, and are used to evaluate the anti-neoplastic properties of compounds. The assay is used by the United States National Cancer Institute in its screening program for new anti-cancer drugs.
Drug stock solutions were made in 100% DMSO and were then diluted with RPMI media for cell culture testing. All drug solutions were prepared fresh on the day of testing. The cultured cells were obtained at passage #99 and grown in RPMI media supplemented with 5% fetal calf serum, and 2 mM glutamine, 100 U/ml penicillin, […] streptomycin, and 0.25 μg/ml amphotericin. The cultures were maintained in a humidified atmosphere of 95% air and 5% CO2 at 37° C. The cultures were passaged at preconfluent densities using a solution of 0.05% trypsin and 0.53 mM EDTA. Cells were plated at 1000 cells/well for 96 well flat-bottom microtiter plates.
Tumor cell growth inhibition was assessed using the Sulforhodamine B (SRB) protein binding assay. […] For each plate, 6 wells were designated as no treatment controls, six wells as vehicle (0.1% DMSO) controls, and the remaining wells for drug dilutions with three wells per drug. At the end of the exposure period, the cells were fixed and stained with sulforhodamine B, a protein binding dye. The dye was then solubilized, and the optical density of the resulting solution was determined on a 96-well plate reader. The mean dye intensity of the treated wells was then divided by the mean dye intensity in the control wells (6 wells of each) to determine the effect of the drug on the cells. Dye intensity is proportional to the number of cells or amount of protein per well. The resultant "percent inhibition" value then represents the degree of growth inhibition caused by the drug.
In addition, a dose response for growth inhibition was determined for the compound of Example 9, and an IC50 value was determined. This value is equivalent to the concentration of drug needed to inhibit tumor cell growth by 50%. […] Each experiment included at least three wells per drug concentration. Concentration was plotted on a log scale on the X-axis.

The target of series [3] is T1, purified cyclooxygenase Type I (COX-I) (Ovis aries, UniProt P05979).
T1 construct: The COX-I was purified from ram seminal vesicles; from tissue; host or cells: ram seminal vesicles
T1 sequence (P05979 25-600): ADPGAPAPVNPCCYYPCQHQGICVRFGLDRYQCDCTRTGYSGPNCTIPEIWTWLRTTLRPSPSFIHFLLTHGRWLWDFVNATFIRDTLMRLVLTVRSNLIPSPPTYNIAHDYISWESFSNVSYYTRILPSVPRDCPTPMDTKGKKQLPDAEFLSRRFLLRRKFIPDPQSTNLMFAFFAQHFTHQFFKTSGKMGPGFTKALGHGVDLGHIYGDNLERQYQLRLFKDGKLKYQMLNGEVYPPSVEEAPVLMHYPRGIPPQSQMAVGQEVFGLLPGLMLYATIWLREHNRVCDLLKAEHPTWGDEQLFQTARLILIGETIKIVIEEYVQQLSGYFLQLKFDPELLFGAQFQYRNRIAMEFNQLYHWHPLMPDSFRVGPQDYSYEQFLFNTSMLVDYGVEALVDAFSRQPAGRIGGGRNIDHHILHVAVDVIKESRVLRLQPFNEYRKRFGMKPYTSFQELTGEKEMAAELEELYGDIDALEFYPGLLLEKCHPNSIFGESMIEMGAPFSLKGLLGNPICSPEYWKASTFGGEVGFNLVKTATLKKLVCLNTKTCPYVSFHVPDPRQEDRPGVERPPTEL
Briefly: Cyclooxygenase Type I (COX-I) inhibition. The series is classed as biochemical, ram. The note with it: arachidonic acid 100 μM, 2.0 min at 37° C. The protocol: COX-I catalyzes the formation of prostaglandins and thromboxane by the oxidative metabolism of arachidonic acid.
Briefly, purified COX-I was incubated with arachidonic acid (100 μM) for 2.0 min at 37° C. in the presence or absence of test compounds. The assay was terminated by the addition of TCA, and COX-I activity was determined by absorbance at 530 nm.

Series [4] has as its system SW-480 colon adenocarcinoma cells. Put plainly: Growth (% vehicle) in dose response of the DNA fragmentation test. The series is classed as cell-based. The note with it: Homo sapiens, SW480, 48 h. The method, then: as §1, §2
The subject of series [5] is HT-29 human colon carcinoma cells. Briefly: Apoptosis, morphology of apoptotic cells by fluorescent microscopy (acridine orange / ethidium bromide). The series is classed as cell-based. The method, then:
Apoptosis was measured using an assay of cell death based on morphological characteristics of apoptotic cells (i.e., condensed chromatin). Drug preparation and cell culture conditions were the same as for the SRB assay described above, except that HT-29 human colon carcinoma cells were used. Confluent cultures were established in 12.5 cm^2 flasks by plating 0.5×10^6 cells/flask. The cultures were assayed for apoptosis by fluorescent microscopy following labeling with acridine orange and ethidium bromide. Floating and attached cells were collected by trypsinization and washed three times in PBS. One ml aliquots were centrifuged (3 g). The pellet was resuspended in 25 μl media and 1 μl of a dye mixture containing 100 μg/ml acridine orange and 100 μg/ml ethidium bromide prepared in PBS and mixed gently. Ten μl of the mixture were placed on a microscope slide and covered with a 22 mm^2 coverslip, which was examined with 40× dry objectives under epillumination by filter combination.
An observer blinded in regard to the identity of the samples scored at least 100 cells per sample. Apoptotic cells were identified by nuclear condensation of chromatin stained by the acridine orange or ethidium bromide.

In the next series the test system is colonic polyps. Particulars: cited from earlier work.
The mark [6] stands for this setting: Homo sapiens, SW480, 100 μM, FS=ODmax/ODveh, fold stimulation, SW-480, 48 hrs, read-out: DNA Fragmentation FS (100 μM).
The mark [7] stands for this setting: Homo sapiens, SW480, 48 h, 100 μM, OD at 100 μM divided by OD of control, read-out: fold stimulation calculated at 100 μM from Tables 4 and 5.

Broadly, the inhibition is how much of the control response was suppressed. Read a low inhibition as a response near the control. Regarding `CSc1ccc(/C=C2/C(C)=C(CCO)c3cc(F)ccc32)cc1` [Example 1, (Z)-5-Fluoro-2-Methyl-1-(4-Methylthio-Benzylidene)-1H-3-Indenyl-(2-Hydroxy)Ethane], the fold induction at 100 µM in series [1] (setting [6]) was found to be 4.9. In addition, the inhibition at 100 µM in series [2] is 71%; in series [3], 70%.

A word on the EC50: it is the concentration needed to bring the measured effect to its halfway point. `COc1cc(/C=C2/C(C)=C(CCO)c3cc(F)ccc32)cc(OC)c1OC` [Example 8, (Z)-5-Fluoro-2-Methyl-1-(3,4,5-Trimethoxybenzylidene)-1H-3-Indenyl-(2-Hydroxy)Ethane]: the “Apoptosis Level (Mean OD Value ± SD)” value came to 0.252 ± 0.017 OD in series [1] (0.001 μM); 0.272 ± 0.013 OD in series [1] (0.01 μM); 0.277 ± 0.044 OD in series [1] (0.1 μM); 0.304 ± 0.044 OD in series [1] (1 μM); 0.355 ± 0.049 OD in series [1] (10 μM); 0.974 ± 0.124 OD in series [1] (100 μM). Further, the “Apoptosis Level (Mean OD Value ± SD)” value in series [1] (500 μM) stood at 0.76 ± 0.113 OD. Further, the results for the fold induction at 100 µM in series [1] (setting [7]) and in series [1] (setting [6]) were 3.9 and 5.4, respectively. Also, the EC50 in series [1] (Homo sapiens, SW480) was 20 µM. In addition, the activity at 0.001 µM in series [4] (0.001 μM) stood at 101 ± 4.6%. The activity at 0.01 µM in series [4] came to 109 ± 9.2%. Moreover, the activity at 0.1 µM in series [4] was 105 ± 5.5%. Moreover, the activity at 1 µM in series [4] stood at 103 ± 6.6%. For the same compound, the activity at 10 µM in series [4] worked out at 24 ± 16%. Besides, in series [4], the activity at 100 µM stood at 5 ± 0.6%. Besides, the activity at 500 µM in series [4] (500 μM) turned out to be 9 ± 3.4%. This compound also yielded an inhibition at 100 µM in series [2] of 93%.

The IC50 is the concentration needed to halve the response being measured. High values mean lower potency, low ones higher potency. For the compound `CC1=C(CCO)c2cc(F)ccc2/C1=C\c1ccc(S(C)(=O)=O)cc1` [Example 9, (Z)-5-Fluoro-2-Methyl-1-(4-Methylsulfonylbenzylidene)-1H-3-Indenyl-(2-Hydroxy)Ethane], in series [5] (100 μM), the “Morphology % Apoptotic Cells 100 μM” value turned out to be 98%. Besides, the “Apoptosis Level (Mean OD Value ± SD)” value is 0.272 ± 0.033 OD in series [1] (0.01 μM); 0.285 ± 0.03 OD in series [1] (0.05 μM); 0.312 ± 0.05 OD in series [1] (0.1 μM); 0.258 ± 0.03 OD in series [1] (0.5 μM); 0.296 ± 0.052 OD in series [1] (1 μM); 0.239 ± 0.024 OD in series [1] (5 μM). Also, the entries for the “Apoptosis Level (Mean OD Value ± SD)” value in series [1] (10 μM), in series [1] (50 μM) and in series [1] (100 μM) were 0.261 ± 0.022 OD, 0.259 ± 0.068 OD and 0.742 ± 0.095 OD, respectively. Besides, the fold induction at 100 µM in series [1] (setting [7]) is 2.1; in series [1] (setting [6]), 6.5. In series [1] (Homo sapiens, SW480), the 50% effective concentration (EC50) is 89.3 µM. The activity at 0.01 µM in series [4] turned out to be 107 ± 7.4%. The activity at 0.05 µM in series [4] (0.05 μM) worked out at 108 ± 9.6%. The activity at 0.1 µM in series [4] was 111 ± 16.7%. The activity at 0.5 µM in series [4] (0.5 μM) is 114 ± 18.1%. In addition, the activity at 1 µM in series [4] came out at 106 ± 6.3%. Moreover, the activity at 5 µM in series [4] (5 μM) was determined as 100 ± 8.3%. The activity at 10 µM in series [4] worked out at 103 ± 9.3%. Moreover, the activity at 50 µM in series [4] (50 μM) turned out to be 35 ± 0.246%. Further, in series [4], the activity at 100 µM came to 21 ± 0.65%. Also, the inhibition at 100 µM is 84% in series [2] and less than 25% in series [3]. Also, in series [2] (SW480, SW-480, obtained graphically from dose response), the 50% inhibitory concentration (IC50) came to 29.2 µM.

Take `CC1=C(CC(=O)O)c2cc(F)ccc2/C1=C\c1ccc(S(C)(=O)=O)cc1` [Exisulind, reference compound]: in series [5] (540 μM), the “Morphology % Apoptotic Cells (@540 μM)” value is reported as 48%. Moreover, the fold induction at 700 µM in series [1] (Homo sapiens, SW480, 700 μM, FS=ODmax/ODveh, fold stimulation, SW-480, 48 hrs) came to 3.4. Also, the half-maximal effective concentration (EC50) in series [1] (Homo sapiens, SW480) is 425 µM.

Regarding `CC1=C(CC(=O)O)c2cc(F)ccc2/C1=C\c1ccc([S+](C)[O-])cc1` (stereo not drawn) [sulindac], the gastric side effects entry in the series with colonic polyps (chronic administration, high cancer-risk patients) is “causes gastric side effects in many such patients”. Moreover, the “effect on colonic polyps” value with colonic polyps (patients) is given as “Polyps virtually disappear”.
